Where a SMILES comes first, the peptide text is derived from it.
Columns and labels:
A2780 cells = test: Therapeutic efficacy (survival) in A2780 xenograft mice; assay type: in vivo, NMRI nude female mice; settings: three injections in three-day intervals; sacrificed when tumour exceeded 1000 mm^3
Procedure: A2780 cells were injected subcutaneously into the posterior flanks of 50 NMRI nude female mice. The mice were randomly allocated into five treatment groups. […] In this study, the mice received three drug injections of 9 mg liposomal or free doxorubicin/kg in three-day intervals.
The mice were weighed and their tumour sizes were measured twice a week after treatment initiation. When tumour sizes exceeded 1000 mm^3 the mice were sacrificed.

[1] = test system: human ovarian carcinoma tumours (OV-90); test: Biodistribution of I-125 labelled 6F-Trp CTT2 peptide in OV-90 tumour mice (gamma counting); assay type: in vivo; settings: 30 min and 180 min; clearance comparable to blood
Procedure: FIG. 8. The biodistribution study of I-125 labelled 6F-Trp CTT2 ([…][6-fluoro]WGFTLC)-peptide. The in vivo biodistribution of the ^125I-labeled peptide was assessed at two time points in NMRI/nude mice carrying human ovarian tumours on their lower back. Results are expressed as percentage of injected dose per 1 g tissue (% ID/1 g). All values are indicated as mean±SD of 5 mice.
The 6F-Trp CTT2 peptide was used in biodistribution study to evaluate its kinetic and tumour targeting properties. The study was performed in mice with established human ovarian carcinoma tumours (OV-90). The 6F-Trp CTT2 peptide was labelled with iodine-125. 40 μg of purified and labelled peptide (˜1 MBq) was injected into the tail vein of mice. 30 min and 180 min after peptide injection mice were sacrificed and blood and tissue samples were collected. The accumulated radioactivity was determined with gamma counter.

tumour cell migration = test: Inhibition of tumour cell migration; assay type: cell-based; settings: versus wild type CTT2 peptide
[2] = Serum stability of CTT2 derivative; assay type: in vitro ADME; settings: versus wild type CTT2 peptide

Row | SMILES | survival status by five weeks after treatment initiation (A2780 cells) | accumulation of radioactivity in all other organs [1] | ability to inhibit tumour cell migration in comparison to the wild type peptide (tumour cell migration) | serum stability in comparison to the wild type peptide [2]
1 | COc1cccc2c1C(=O)c1c(O)c3c(c(O)c1C2=O)C[C@@](O)(C(=O)CO)C[C@@H]3O[C@H]1C[C@H](N)[C@H](O)[C@H](C)O1 [free doxorubicin, doxorubicin] | had been sacrificed | – | – | –
2 | CC(C)C[C@@H]1NC(=O)[C@H]([C@@H](C)O)NC(=O)[C@H](Cc2ccccc2)NC(=O)CNC(=O)C(Cc2c[nH]c3cc(F)ccc23)NC(=O)[C@H](Cc2c[nH]cn2)NC(=O)[C@H]([C@@H](C)O)NC(=O)[C@H]([C@@H](C)O)NC(=O)[C@@H](NC(=O)CNC(=O)[C@H](Cc2c[nH]cn2)NC(=O)[C@H](Cc2ccc(O)cc2)NC(=O)[C@H](CC(N)=O)NC(=O)[C@H](CCC(=O)O)NC(=O)[C@H](CCCNC(=N)N)NC(=O)CN)CSSC[C@@H](C(N)=O)NC1=O (stereo partly drawn) [6F-Trp CTT2, GRENYHG-Cyclo(CTTH(d,l-6-Fluoro-W)GFTLC)-NH2] (HELM PEPTIDE1{G.R.E.N.Y.H.G.C.T.T.H.[O=C(C(Cc1c[nH]c2cc(F)ccc12)N[*:1])[*:2]].G.F.T.L.C.[am]}$PEPTIDE1,PEPTIDE1,8:R3-17:R3$$$V2.0; N-terminus assumed) | – | negligible | improved ability to inhibit tumour cell migration | enhancement in serum stability

— patent publication US20070140972A1, “Targeting compositions and preparation therof” (CTT CANSER TARGETING TECHNOLOGIES OY, priority 2003, published 2007)
